pIC50: −log10 of the molar value.
Target: T1, Dihydrofolate reductase (Escherichia coli (strain K12), UniProt O30463+P0ABQ4)
T1 sequence (P0ABQ4 whole entry): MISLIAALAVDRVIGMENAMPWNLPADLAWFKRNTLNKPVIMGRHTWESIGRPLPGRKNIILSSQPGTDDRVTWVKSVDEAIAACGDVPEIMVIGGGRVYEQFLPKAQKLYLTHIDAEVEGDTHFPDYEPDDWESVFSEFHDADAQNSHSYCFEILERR
T1 sequence (O30463 whole entry): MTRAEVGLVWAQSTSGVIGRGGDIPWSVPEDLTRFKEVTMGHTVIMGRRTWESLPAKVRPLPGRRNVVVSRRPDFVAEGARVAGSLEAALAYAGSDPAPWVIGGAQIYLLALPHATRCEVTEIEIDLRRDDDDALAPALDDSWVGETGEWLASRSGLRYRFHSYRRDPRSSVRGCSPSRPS
Assay: Inhibitory concentration against Escherichia coli dihydrofolate reductase

## CN(Cc1ccc2c(n1)C(N)N=C(N)N2)c1ccc(C(=O)NC(CCC(=O)O)C(=O)O)cc1 (stereo unspecified) [2-{4-[(2,4-Diamino-4,4a-dihydro-pyrido[3,2-d]pyrimidin-6-ylmethyl)-methyl-amino]-benzoylamino}-pentanedioic acid]
  pIC50: 3.18
